Measured values taken from patent publication US8710065B2, “Tricyclic inhibitors of kinases” (AbbVie Inc., priority 2011, dated 2014).

Biological target: T1, GST-tagged-Wee1 kinase (Homo sapiens, UniProt P30291)
T1 construct: purchased Carnabio (Carna Biosciences) 05-177
Test: Wee1 time-resolved fluorescence equilibrium binding assay (displacement of Oregon Green-labeled ATP-competitive kinase probe)
Conditions: read-out: Wee-1 inhibition (Ki)
Method in brief: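 Ki values derive from competitive displacement, under equilibrium, of a fast-reversible ATP-site Oregon Green kinase probe from GST-tagged Wee1, detected by time-resolved fluorescence.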

T1 sequence (P30291 whole entry): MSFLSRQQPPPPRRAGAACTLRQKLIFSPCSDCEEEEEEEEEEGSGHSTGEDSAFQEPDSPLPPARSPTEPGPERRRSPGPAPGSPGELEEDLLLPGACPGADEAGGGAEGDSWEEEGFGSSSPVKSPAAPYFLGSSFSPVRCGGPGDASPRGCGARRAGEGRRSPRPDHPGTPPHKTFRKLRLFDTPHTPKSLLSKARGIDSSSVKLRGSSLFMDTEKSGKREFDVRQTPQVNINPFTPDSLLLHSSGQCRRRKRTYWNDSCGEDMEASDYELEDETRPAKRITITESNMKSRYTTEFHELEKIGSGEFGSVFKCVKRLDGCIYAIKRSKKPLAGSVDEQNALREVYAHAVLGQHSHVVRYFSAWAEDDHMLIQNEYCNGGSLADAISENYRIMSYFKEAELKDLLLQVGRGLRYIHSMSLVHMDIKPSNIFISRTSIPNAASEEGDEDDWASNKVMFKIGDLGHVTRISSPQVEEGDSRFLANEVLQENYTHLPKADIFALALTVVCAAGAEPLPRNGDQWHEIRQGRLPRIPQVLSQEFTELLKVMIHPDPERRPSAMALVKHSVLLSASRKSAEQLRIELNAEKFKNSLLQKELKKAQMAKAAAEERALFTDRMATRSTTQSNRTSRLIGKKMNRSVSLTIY

Row | Ki [nM] | SMILES
1 | > 100 | COc1cccc(-n2c(=O)c3cnc(Nc4ccccc4)nc3n3ccnc23)c1C [Example 344, 6-(3-methoxy-2-methylphenyl)-2-(phenylamino)imidazo[1,2-a]pyrimido[5,4-e]pyrimidin-5(6H)-one]
2 | 10 to 100 | Cc1cc(Nc2ncc3c(=O)n(-c4c(Cl)cccc4Cl)c4nccn4c3n2)ccc1N1CCCNCC1 [Example 345, 2-{[4-(1,4-diazepan-1-yl)-3-methylphenyl]amino}-6-(2,6-dichlorophenyl)imidazo[1,2-a]pyrimido[5,4-e]pyrimidin-5(6H)-one]
3 | 10 to 100 | CC(C)n1c(=O)c2cnc(Nc3ccc(N4CCN(C)CC4)cc3)nc2n2ccnc12 [Example 346, 2-{[4-(4-methylpiperazin-1-yl)phenyl]amino}-6-(propan-2-yl)imidazo[1,2-a]pyrimido[5,4-e]pyrimidin-5(6H)-one]
4 | > 100 | CN1CCN(c2c(F)cc(Nc3ncc4c(=O)n(-c5ccccc5Cl)c5nccn5c4n3)cc2F)CC1 [Example 347, 6-(2-chlorophenyl)-2-{[3,5-difluoro-4-(4-methylpiperazin-1-yl)phenyl]amino}imidazo[1,2-a]pyrimido[5,4-e]pyrimidin-5(6H)-one]
5 | > 100 | O=c1c2cnc(Nc3ccc(C(F)(F)F)cc3)nc2n2ccnc2n1-c1ccccc1Cl [Example 348, 6-(2-chlorophenyl)-2-{[4-(trifluoromethyl)phenyl]amino}imidazo[1,2-a]pyrimido[5,4-e]pyrimidin-5(6H)-one]
6 | 10 to 100 | O=c1c2cnc(Nc3ccc(-c4cscn4)cc3)nc2n2ccnc2n1-c1ccccc1Cl [Example 349, 6-(2-chlorophenyl)-2-{[4-(1,3-thiazol-4-yl)phenyl]amino}imidazo[1,2-a]pyrimido[5,4-e]pyrimidin-5(6H)-one]
7 | 10 to 100 | O=c1c2cnc(Nc3ccc(-c4nccs4)cc3)nc2n2ccnc2n1-c1ccccc1Cl [Example 350, 6-(2-chlorophenyl)-2-{[4-(1,3-thiazol-2-yl)phenyl]amino}imidazo[1,2-a]pyrimido[5,4-e]pyrimidin-5(6H)-one]
8 | 10 to 100 | O=c1c2cnc(Nc3ccc(-c4ccc5cccnc5n4)cc3)nc2n2ccnc2n1-c1ccccc1Cl [Example 351, 6-(2-chlorophenyl)-2-{[4-(1,8-naphthyridin-2-yl)phenyl]amino}imidazo[1,2-a]pyrimido[5,4-e]pyrimidin-5(6H)-one]
9 | 10 to 100 | O=c1c2cnc(Nc3ccc(N4CCC[C@H]4C(F)(F)F)cc3)nc2n2ccnc2n1-c1ccccc1Cl [Example 352, 6-(2-chlorophenyl)-2-({4-[(2S)-2-(trifluoromethyl)pyrrolidin-1-yl]phenyl}amino)imidazo[1,2-a]pyrimido[5,4-e]pyrimidin-5(6H)-one]
10 | > 100 | CN1CCN(c2c(Cl)cc(Nc3ncc4c(=O)n(-c5ccccc5Cl)c5nccn5c4n3)cc2C(F)(F)F)CC1 [Example 353, 2-{[3-chloro-4-(4-methylpiperazin-1-yl)-5-(trifluoromethyl)phenyl]amino}-6-(2-chlorophenyl)imidazo[1,2-a]pyrimido[5,4-e]pyrimidin-5(6H)-one]
11 | > 100 | O=c1c2cnc(Nc3cc(Cl)c(N4CCNCC4)c(C(F)(F)F)c3)nc2n2ccnc2n1-c1ccccc1Cl [Example 354, 6-(2-chlorophenyl)-2-{[3-chloro-4-(piperazin-1-yl)-5-(trifluoromethyl)phenyl]amino}imidazo[1,2-a]pyrimido[5,4-e]pyrimidin-5(6H)-one]
12 | < 10 | CN1Cc2cc(Nc3ncc4c(=S)n(-c5ccccc5Cl)c5nccn5c4n3)ccc2C2(CC2)C1 [Example 355, 6-(2-chlorophenyl)-2-[(2′-methyl-2′,3′-dihydro-1′H-spiro[cyclopropane-1,4′-isoquinolin]-7′-yl)amino]imidazo[1,2-a]pyrimido[5,4-e]pyrimidine-5(6H)-thione]
